From US9676773B2, “Azaindole derivative” (TAIHO PHARMACEUTICAL CO., LTD., priority 2014, dated 2017)

Assays:
[1] = target: T1, purified recombinant human JAK1 protein (Homo sapiens, UniProt P23458); assay: Measurement of JAK1 kinase-inhibitory activity; assay type: biochemical; details: substrate peptide 1 μM, ATP 75 M (so in the source), 25° C., 120 minutes
T1 construct: purchased Carna Biosciences, Inc
Description: 1) Measurement of JAK1 Kinase-Inhibitory Activity
The activity of the compound of the present invention to inhibit the activity of JAK1 kinase was measured.
Among materials for the measurement of this inhibitory activity, a substrate peptide and a kinase protein were acquired as follows. As such a substrate peptide, a substrate peptide for QSS Assist™ JAK1-MSA assay kit (Carna Biosciences, Inc.) was purchased. As such a kinase protein, a purified recombinant human JAK1 protein (Carna Biosciences, Inc.) was purchased.
The method for measuring the inhibitory activity is as follows. First, the compounds of the present invention were each dissolved in dimethyl sulfoxide (DMSO), and a serial dilution was then prepared by the use of DMSO. Subsequently, a serial dilution solution of the compound (the final concentration of DMSO upon a kinase reaction: 5.0%) or DMSO (final concentration: 5.0%) was mixed with a solution containing the substrate peptide (final concentration: 1 μM), magnesium chloride (final concentration: 5 mM) and ATP (final concentration: 75 µM) in a buffer for kinase reaction (20 mM HEPES (pH 7.5), 2 mM dithiothreitol and 0.01% Triton X-100). Thereafter, a JAK1 protein was further added to the mixed solution, and the obtained mixture was then incubated at 25° C. for 120 minutes to carry out a kinase reaction. To the reaction solution, EDTA was added to a final concentration of 30 mM, so as to terminate the reaction. Finally, with LabChip EZ Reader II (Perkin Elmer Corp.), an unphosphorylated substrate peptide (S) and a phosphorylated peptide (P) were subjected to microchannel capillary electrophoresis, so that the two peptides were separated from each other and were then detected. The amount of a phosphorylation reaction was obtained based on the heights of the peaks of S and P, and the concentration of the compound capable of inhibiting 50% of the phosphorylation reaction was defined as an IC50 value (nM).

[2] = test system: human PBMC; assay: IL-2-dependent growth of human peripheral blood mononuclear cells (PBMC); assay type: cell-based; details: PHA-M pre-culture 3 days, IL-2 2 ng/mL, 2 days, CellTiter-Glo, read-out: PSMC IC50
Description: The activity of the compound of the present invention to inhibit the IL-2-dependent growth reaction of human PBMC, which is caused by JAK3, was measured (Arthritis Rheum. 2010; 62(8): 2283-93).
With a medium containing 10 μg/mL PHA-M (Sigma) (which is RPI-1640 (Sigma) containing 10% human serum type AB (MP Biomedicals)), human PBMC (C.T.L.) (cell density: 1×10^6 cells/mL) was cultured at 37° C. in a culture vessel containing 5% carbon dioxide for 3 days. Thereafter, the culture was washed with RPMI-1640 four times, and a medium (RPMI-1640 containing 10% human serum type AB) was then added to the resultant culture to prepare a cell suspension. The cells (1×10^4 cells per well) and the serially diluted compound of the present invention were added to each well of a 96-well U-bottom microplate, and thus obtained mixture was then cultured at 37° C. in a culture vessel containing 5% carbon dioxide for 30 minutes. After completion of the culture, recombinant human IL-2 (Peprotech) was added to the culture to a final concentration of 2 ng/mL, and the obtained mixture was then stirred at 37° C. in a culture vessel containing 5% carbon dioxide for 2 days (1×10^4 cells/100 μl/each well). After completion of the culture, the resultant was left at a room temperature for 30 minutes, and 100 μl of CellTiter-Glo Luminescent Cell Viability Assay (Promega) was then added to the resultant, followed by stirring it. Thereafter, the reaction mixture was left for 10 minutes, and the amount of a luminescence derived from living cells in each well was then measured with a microplate reader (TECAN). The inhibition rate of the compound to the cell growth caused by IL-2 stimulation was calculated, and the concentration of the compound capable of inhibiting 50% of the cell growth was defined as an […] value (nM).

T1 sequence (P23458 whole entry): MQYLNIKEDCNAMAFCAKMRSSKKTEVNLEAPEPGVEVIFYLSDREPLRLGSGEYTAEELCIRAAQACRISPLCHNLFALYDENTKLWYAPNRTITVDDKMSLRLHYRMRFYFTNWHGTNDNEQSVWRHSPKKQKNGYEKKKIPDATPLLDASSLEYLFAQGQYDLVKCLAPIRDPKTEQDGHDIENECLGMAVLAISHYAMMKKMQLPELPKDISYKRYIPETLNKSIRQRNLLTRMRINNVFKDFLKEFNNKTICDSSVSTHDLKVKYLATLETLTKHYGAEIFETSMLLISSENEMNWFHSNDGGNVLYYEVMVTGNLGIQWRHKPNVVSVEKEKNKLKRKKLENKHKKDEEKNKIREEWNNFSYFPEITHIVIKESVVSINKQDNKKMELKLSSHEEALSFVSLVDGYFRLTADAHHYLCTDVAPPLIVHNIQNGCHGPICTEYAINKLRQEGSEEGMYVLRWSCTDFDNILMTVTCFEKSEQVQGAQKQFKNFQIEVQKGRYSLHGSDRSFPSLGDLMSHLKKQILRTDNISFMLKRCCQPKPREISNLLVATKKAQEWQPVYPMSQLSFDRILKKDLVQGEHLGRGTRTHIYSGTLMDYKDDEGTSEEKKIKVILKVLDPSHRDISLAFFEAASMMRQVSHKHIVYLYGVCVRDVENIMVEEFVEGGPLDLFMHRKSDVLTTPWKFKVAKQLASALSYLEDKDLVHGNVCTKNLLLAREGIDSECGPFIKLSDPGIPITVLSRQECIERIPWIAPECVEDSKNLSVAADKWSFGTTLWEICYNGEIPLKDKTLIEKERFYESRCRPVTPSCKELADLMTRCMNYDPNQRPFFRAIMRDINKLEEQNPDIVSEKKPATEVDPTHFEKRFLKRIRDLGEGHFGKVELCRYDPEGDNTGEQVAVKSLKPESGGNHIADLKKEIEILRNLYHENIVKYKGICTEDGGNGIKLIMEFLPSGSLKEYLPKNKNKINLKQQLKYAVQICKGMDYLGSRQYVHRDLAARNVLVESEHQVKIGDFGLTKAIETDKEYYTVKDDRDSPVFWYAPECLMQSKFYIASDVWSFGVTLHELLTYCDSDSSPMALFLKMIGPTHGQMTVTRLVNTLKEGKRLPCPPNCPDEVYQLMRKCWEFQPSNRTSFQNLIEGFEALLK

C1=C(c2ccnc3[nH]ccc23)CCCC1 [Comparative Example 1, reference compound]
IC50 [1]: 1200 nM | IC50 [2]: > 3000 nM

C1=C(c2ccnc3[nH]ccc23)CCC1 [Comparative Example 2, 4-(Cyclopent-1-en-1-yl)-1H-pyrrolo[2,3-b]pyridine, reference compound]
IC50 [1]: 2200 nM | IC50 [2]: > 3000 nM

Cc1nc(-c2c[nH]c3ncc(-c4ccccc4)cc23)cs1 [Comparative Example 3, 2-Methyl-4-(5-phenyl-1H-pyrrolo[2,3-b]pyridin-3-yl)thiazole, reference compound]
IC50 [1]: 2900 nM | IC50 [2]: > 3000 nM

C=CC(=O)NC1CCC=C(c2ccnc3[nH]cc(-c4ccccc4)c23)C1 (stereo not drawn) [Compound 1, N-(3-(3-Phenyl-1H-pyrrolo[2,3-b]pyridin-4-yl)cyclohex-3-en-1-yl)acrylamide]
IC50 [1]: 740 nM | IC50 [2]: 216 nM

C=CC(=O)NC1CCC=C(c2ccnc3[nH]cc(-c4cn[nH]c4)c23)C1 (stereo not drawn) [Compound 3, N-(3-(3-(1H-Pyrazol-4-yl)-1H-pyrrolo[2,3-b]pyridin-4-yl)cyclohex-3-en-1-yl)acrylamide]
IC50 [1]: 1900 nM | IC50 [2]: 182 nM

C=CC(=O)NC1CCC=C(c2ccnc3[nH]cc(-c4cccnc4OC)c23)C1 (stereo not drawn) [Compound 6, N-(3-(3-(2-Methoxypyridin-3-yl)-1H-pyrrolo[2,3-b]pyridin-4-yl)cyclohex-3-en-1-yl)acrylamide]
IC50 [1]: 1100 nM | IC50 [2]: 181 nM

C=CC(=O)NC1CCC=C(c2ccnc3[nH]cc(-c4ccc(CO)o4)c23)C1 (stereo not drawn) [Compound 10, N-(3-(3-(5-(Hydroxymethyl)furan-2-yl)-1H-pyrrolo[2,3-b]pyridin-4-yl)cyclohex-3-en-1-yl)acrylamide]
IC50 [1]: 1900 nM | IC50 [2]: 136 nM

C=CC(=O)NC1CCC=C(c2ccnc3[nH]cc(-c4ccco4)c23)C1 (stereo not drawn) [Compound 12, N-(3-(3-(Furan-2-yl)-1H-pyrrolo[2,3-b]pyridin-4-yl)cyclohex-3-en-1-yl)acrylamide]
IC50 [1]: 780 nM | IC50 [2]: 123 nM

C=CC(=O)NC1CCC=C(c2ccnc3[nH]cc(-c4cc(CO)co4)c23)C1 (stereo not drawn) [Compound 14, N-(3-(3-(4-(Hydroxymethyl)furan-2-yl)-1H-pyrrolo[2,3-b]pyridin-4-yl)cyclohex-3-en-1-yl)acrylamide]
IC50 [1]: 3200 nM | IC50 [2]: 114 nM

C=CC(=O)NC1CCC=C(c2ccnc3[nH]cc(C4=CCOC4)c23)C1 (stereo not drawn) [Compound 34, N-(3-(3-(2,5-Dihydrofuran-3-yl)-1H-pyrrolo[2,3-b]pyridin-4-yl)cyclohex-3-en-1-yl)acrylamide]
IC50 [1]: 2400 nM | IC50 [2]: 82 nM

C=CC(=O)NC1CCC=C(c2ccnc3[nH]cc(-c4ccc(F)nc4)c23)C1 (stereo not drawn) [Compound 37, N-(3-(3-(6-Fluoropyridin-3-yl)-1H-pyrrolo[2,3-b]pyridin-4-yl)cyclohex-3-en-1-yl)acrylamide]
IC50 [1]: 4400 nM | IC50 [2]: 159 nM

C=CC(=O)NC1CCC=C(c2ccnc3[nH]cc(-c4cnco4)c23)C1 (stereo not drawn) [Compound 48, N-(3-(3-(Oxazol-5-yl)-1H-pyrrolo[2,3-b]pyridin-4-yl)cyclohex-3-en-1-yl)acrylamide]
IC50 [1]: 2400 nM | IC50 [2]: 114 nM

C=CC(=O)NC1CCC=C(c2ccnc3[nH]cc(-c4nnco4)c23)C1 (stereo not drawn) [Compound 49, N-(3-(3-(1,3,4-Oxadiazol-2-yl)-1H-pyrrolo[2,3-b]pyridin-4-yl)cyclohex-3-en-1-yl)acrylamide]
IC50 [1]: 3400 nM | IC50 [2]: 122 nM

C=CC(=O)NC1CCC=C(c2ccnc3[nH]cc(-c4nn(C)c(=O)o4)c23)C1 (stereo not drawn) [Compound 53, N-(3-(3-(4-Methyl-5-oxo-4,5-dihydro-1,3,4-oxadiazol-2-yl)-1H-pyrrolo[2,3-b]pyridin-4-yl)cyclohex-3-en-1-yl)acrylamide]
IC50 [1]: 3900 nM | IC50 [2]: 162 nM

C=CC(=O)NC1CCC=C(c2ccnc3[nH]cc(-c4nncs4)c23)C1 (stereo not drawn) [Compound 54]
IC50 [1]: 6900 nM | IC50 [2]: 170 nM

C=CC(=O)N[C@H]1CCC=C(c2ccnc3[nH]cc(-c4nnco4)c23)C1 [Compound 55, (S)—N-(3-(3-(1,3,4-Oxadiazol-2-yl)-1H-pyrrolo[2,3-b]pyridin-4-yl)cyclohex-3-en-1-yl)acrylamide]
IC50 [1]: 1000 nM | IC50 [2]: 34 nM

C=CC(=O)NC1CC=C(c2ccnc3[nH]cc(-c4nnco4)c23)C1 (stereo not drawn) [Compound 57, N-(3-(3-(1,3,4-Oxadiazol-2-yl)-1H-pyrrolo[2,3-b]pyridin-4-yl)cyclopent-3-en-1-yl)acrylamide]
IC50 [1]: 3500 nM | IC50 [2]: 304 nM

C=CC(=O)N[C@H]1CCC=C(c2ccnc3[nH]cc(-c4ccno4)c23)C1 [Compound 59]
IC50 [1]: 1500 nM | IC50 [2]: 55 nM
